Results published in patent publication US20230271969A1, “NITROGEN-CONTAINING FUSED RING DERIVATIVE INHIBITOR, PREPARATION METHOD THEREFOR AND USE THEREOF” (Shanghai Hansoh Biomedical Co., Ltd., priority 2020, published 2023).

Legend:
[1] = molecular target: T1, NK3 receptors (Homo sapiens, UniProt P29371); assay: Calcium ion fluidity (FLIPR) in cells with stable expression of NK3 receptors; assay type: cell-based; conditions: calcium signal, antagonist mode, read-out: NK3R IC50 (nM) FLIPR
T1 construct: expressed in transfected cells
T1 sequence (P29371 1-465): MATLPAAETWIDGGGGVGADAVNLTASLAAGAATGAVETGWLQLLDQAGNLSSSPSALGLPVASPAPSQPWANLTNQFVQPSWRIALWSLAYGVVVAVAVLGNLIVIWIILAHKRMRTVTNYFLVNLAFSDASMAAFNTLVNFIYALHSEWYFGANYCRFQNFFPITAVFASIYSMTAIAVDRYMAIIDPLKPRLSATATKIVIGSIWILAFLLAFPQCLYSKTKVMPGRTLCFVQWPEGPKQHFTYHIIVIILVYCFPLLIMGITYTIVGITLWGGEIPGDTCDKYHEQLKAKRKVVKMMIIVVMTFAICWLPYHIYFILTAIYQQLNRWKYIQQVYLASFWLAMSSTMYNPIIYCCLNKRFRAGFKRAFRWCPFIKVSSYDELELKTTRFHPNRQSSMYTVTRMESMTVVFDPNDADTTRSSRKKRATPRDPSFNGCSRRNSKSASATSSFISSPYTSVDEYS
Description: Determination of the Effect of the Compounds of the Present Invention on Calcium Ion Fluidity in Cells with Stable Expression of NK3 Receptors
Experimental objective: The objective of this test example was to determine the inhibitory effect of the compounds on NK3 receptors.
Experimental Methods: • 1. […] Probenecid and BSA were freshly added on the day of the experiment. The buffers for the experiments included dye buffer, compound dilution buffer and the like. • 2. […] The culture medium was discarded, and 20 μL of dye was added. The cells were incubated at 37° C. in the dark for 60 min, and then the calcium signal was read. • 4. The antagonist was prepared before the experiments. […] The plate was transferred to FLIPR, and 6× concentration of the agonist compound was added at 5 μL/well. The values were read and the data were saved by using FLIPR. The total assay volume was 30 μL, comprising 20 μL/well of dye buffer, 5 μL/well of 5× concentration of the experimental compound, and 5 μL/well of 6× concentration of the agonist compound.
The calcium signal value was read by FLIPR. The output of each sampling time point in the experiment was calculated as the ratio of the signals at wavelengths of 340/510 nm to 380/510 nm. The maximum minus minimum value was calculated from the ratio signal curve. The IC50 value of the compound was calculated by fitting the data of inhibition rate percentage and ten concentrations to the parametric nonlinear logistic equation by using GraphPad prism.

[2] = molecular target: T1, NK3 receptors; assay: Antagonism of IP1 in HEK293 cells with stable expression of NK3; assay type: cell-based; conditions: agonist Senktide 3 nM, read-out: NK3R IC50 (nM) IP1
Procedure: Determination of the Effect of the Compounds of the Present Invention on IP1 in HEK293 Cells with Stable Expression of NK3
The objective of this test example was to determine the antagonism effect of the compounds on the activity of HEK293-NK3 cells.
3. Experimental Methods: • 1. […] HEK293-NK3 cell line was cultured in complete medium and seeded in the coated dishes at 37° C., 5% CO2 until 70%˜90% confluence. • 3. […] The cells were digested and resuspended in 1× Stimulation Buffer (IP-ONE Gq Kit), seeded into the 384-well cell culture plate (which contained the compound to be tested) at 5,000 cells/well/5 μL by using Multidrop Combi. The culture plate was centrifuged at 300 rpm at room temperature for 60 seconds, and then incubated at 37° C., 5% CO2 for 15 minutes. • 5. The cell culture plate was taken out from the CO2 incubator. […] The culture plate was centrifuged at 300 rpm at room temperature for 60 seconds, and then incubated at 37° C., 5% CO2 for 2 hours. • 6. The cell culture plate was taken out from the CO2 incubator. 5 μL of IP1 d2 reagent and then 5 μL of IP1 Tb Cryptate Antibody reagent were added by using Multidrop Combi. The culture plate was centrifuged at room temperature at 300 rpm for 60 seconds, and left to stand at room temperature for 1 hour. • 7. The plate was read by using EnVision Multilabel Reader, and data were collected at the same time.
The fluorescence signal ratio (Ratio) was read and collected by EnVision Multilabel Reader. According to the readings of the Low control (DMSO control) and High control (p)ositive compound) experimental groups, the antagonism percentage data were calculated as {% antagonism=(Ratio sample−Ratio low control)/(Ratio high control−Ratio low control)×100}.

Compound | IC50 [1] | IC50 [2]
COc1ccc2nc(-c3nnc4n3CCN(C(=O)c3ccc(F)cc3)[C@@H]4C)sc2c1 [Example 29, (R)-(4-Fluorophenyl)(3-(6-methoxybenzo[d]thiazol-2-yl)-8-methyl-5,6-dihydro-[1,2,4]triazolo[4,3-a]pyrazin-7(8H)-yl)methanone] | 65.8 nM | 29 nM
[2H]c1cc(C(=O)N2CCn3c(-c4nc5ccc(F)cc5s4)nnc3[C@H]2C)ccc1Cl [Example 101, (R)-(4-Chlorophenyl-3-d)(3-(6-fluorobenzo[d]thiazol-2-yl)-8-methyl-5,6-dihydro-[1,2,4]triazolo[4,3-a]pyrazin-7(8H)-yl)methanone] | 86.7 nM | 61 nM
C[C@@H]1c2nnc(-c3nc4cc(F)ccc4s3)n2CCN1C(=O)c1ccc(F)cc1 [Example 9, (R)-(3-(5-Fluorobenzo[d]thiazol-2-yl)-8-methyl-5,6-dihydro-[1,2,4]triazolo[4,3-a]pyrazin-7(8H)-yl)(4-fluorophenyl)methanone] | 33.3 nM | 46 nM
[2H]c1c([2H])c(C(=O)N2CCn3c(-c4nc(C([2H])([2H])[2H])ns4)nnc3[C@H]2C)c([2H])c([2H])c1F [Example 50, (R)-(4-Fluorophenyl-2,3,5,6-d4)(8-methyl-3-(3-(methyl-d3)-1,2,4-thiadiazol-5-yl)-5,6-dihydro-[1,2,4]triazolo[4,3-a]pyrazin-7(8H)-yl)methanone] | 147 nM | –
C[C@@H]1c2nnc(-c3nc4ccc(Cl)cc4s3)n2CCN1C(=O)c1ccc(Cl)cc1 [Example 20, (R)-(3-(6-Chlorobenzo[d]thiazol-2-yl)-8-methyl-5,6-dihydro-[1,2,4]triazolo[4,3-a]pyrazin-7(8H)-yl)(4-chlorophenyl)methanone] | 61 nM | 27.3 nM
Cc1cccc2cc(-c3nnc4n3CCN(C(=O)c3ccc(Cl)c(Cl)c3)[C@@H]4C)nn12 [Example 49, (R)-(3,4-Dichlorophenyl)(8-methyl-3-(7-methylpyrazolo[1,5-a]pyridin-2-yl)-5,6-dihydro-[1,2,4]triazolo[4,3-a]pyrazin-7(8H)-yl)methanone] | 86.7 nM | 135 nM
C[C@@H]1c2nnc(-c3nc(N(C)C4CC4)ns3)n2CCN1C(=O)c1ccc(F)cc1 [Example 115, (R)-(3-(3-(Cyclopropyl(methyl)amino)-1,2,4-thiadiazol-5-yl)-8-methyl-5,6-dihydro-[1,2,4]triazolo[4,3-a]pyrazin-7(8H)-yl)(4-fluorophenyl)methanone] | – | 76.6 nM
[2H]c1cc(C(=O)N2CCn3c(-c4nc5cc(F)c(F)cc5s4)nnc3[C@H]2C)ccc1Cl [Example 99, (R)-(4-Chlorophenyl-3-d)(3-(5,6-difluorobenzo[d]thiazol-2-yl)-8-methyl-5,6-dihydro-[1,2,4]triazolo[4,3-a]pyrazin-7(8H)-yl)methanone] | 56.2 nM | 23.3 nM
[2H]c1cc(C(=O)N2CCn3c(-c4nc5ccc(Cl)cc5s4)nnc3[C@H]2C)ccc1F [Example 103, (R)-(3-(6-Chlorobenzo[d]thiazol-2-yl)-8-methyl-5,6-dihydro-[1,2,4]triazolo[4,3-a]pyrazin-7(8H)-yl)(4-fluorophenyl-3-d)methanone] | 27.1 nM | 16 nM
C[C@@H]1c2nnc(-c3nc(Br)ns3)n2CCN1C(=O)c1ccc(F)cc1 [Example 98] | 78.4 nM | 100 nM
[2H]C([2H])([2H])N(c1nsc(-c2nnc3n2CCN(C(=O)c2ccc(F)cc2)[C@@H]3C)n1)C([2H])([2H])[2H] [Example 106, (R)-(3-(3-(Bis(methyl-d3)amino)-1,2,4-thiadiazol-5-yl)-8-methyl-5,6-dihydro-[1,2,4]triazolo[4,3-a]pyrazin-7(8H)-yl)(4-fluorophenyl)methanone] | – | 129 nM
C[C@@H]1c2nnc(-c3nc4cc(F)cc(F)c4s3)n2CCN1C(=O)c1ccc(F)cc1 [Example 18, (R)-(3-(5,7-Difluorobenzo[d]thiazol-2-yl)-8-methyl-5,6-dihydro-[1,2,4]triazolo[4,3-a]pyrazin-7(8H)-yl)(4-fluorophenyl)methanone] | 130 nM | –
C[C@@H]1c2nnc(-c3cc4ccccn4n3)n2CCN1C(=O)c1ccc(Cl)c(Cl)c1 [Example 46, (R)-(3,4-Dichlorophenyl)(8-methyl-3-(pyrazolo[1,5-a]pyridin-2-yl)-5,6-dihydro-[1,2,4]triazolo[4,3-a]pyrazin-7(8H)-yl)methanone] | 107 nM | –
C[C@@H]1c2nnc(-c3nc4ccc(Cl)nc4s3)n2CCN1C(=O)c1ccc(F)cc1 [Example 38] | 247 nM | –
[2H]c1cc(C(=O)N2CCn3c(-c4nc(N5CC(F)C5)cs4)nnc3[C@H]2C)ccc1F [Example 117, (R)-(3-(4-(3-Fluoroazetidin-1-yl)thiazol-2-yl)-8-methyl-5,6-dihydro-[1,2,4]triazolo[4,3-a]pyrazin-7(8H)-yl)(4-fluorophenyl-3-d)methanone] | – | 116 nM
C[C@@H]1c2nnc(-c3nc4ccccc4s3)n2CCN1C(=O)c1ccc(F)cc1 [Example 1, (R)-(3-(Benzo[d]thiazol-2-yl)-8-methyl-5,6-dihydro-[1,2,4]triazolo[4,3-a]pyrazin-7 (8H)-yl)(4-fluorophenyl)methanone] | 76.2 nM | –
C[C@@H]1c2nnc(-c3nc4c(F)cc(F)cc4s3)n2CCN1C(=O)c1ccc(Cl)cc1 [Example 16, (R)-(4-Chlorophenyl)(3-(4,6-difluorobenzo[d]thiazol-2-yl)-8-methyl-5,6-dihydro-[1,2,4]triazolo[4,3-a]pyrazin-7(8H)-yl)methanone] | – | 146 nM
C[C@@H]1c2nnc(-c3nc4ccsc4s3)n2CCN1C(=O)c1ccc(Cl)c(Cl)c1 [Example 44, (R)-(3,4-Dichlorophenyl)(8-methyl-3-(thieno[3,2-d]thiazol-2-yl)-5,6-dihydro-[1,2,4]triazolo[4,3-a]pyrazin-7(8H)-yl)methanone] | 255 nM | –
C[C@@H]1c2nnc(-c3nc4sccc4s3)n2CCN1C(=O)c1ccc(Cl)cc1 [Example 41, (R)-(4-Chlorophenyl)(8-methyl-3-(thieno[2,3-d]thiazol-2-yl)-5,6-dihydro-[1,2,4]triazolo[4,3-a]pyrazin-7(8H)-yl)methanone] | 224 nM | –
C[C@@H]1c2nnc(-c3nc4sccc4s3)n2CCN1C(=O)c1ccc(F)cc1 [Example 40, (R)-(4-Fluorophenyl)(8-methyl-3-(thieno[2,3-d]thiazol-2-yl)-5,6-dihydro-[1,2,4]triazolo[4,3-a]pyrazin-7(8H)-yl)methanone] | 298 nM | –
C[C@@H]1c2nnc(-c3nc4ccccc4s3)n2CCN1C(=O)c1ccc(-c2cccs2)cc1 [Example 5, (R)-(3-(Benzo[d]thiazol-2-yl)-8-methyl-5,6-dihydro-[1,2,4]triazolo[4,3-a]pyrazin-7 (8H)-yl)(4-(thien-2-yl)phenyl)methanone] | 159 nM | –
[2H]c1cc(C(=O)N2CCn3c(-c4nc(Cl)cs4)nnc3[C@H]2C)ccc1F [Example 121, (R)-(3-(4-Chlorothiazol-2-yl)-8-methyl-5,6-dihydro-[1,2,4]triazolo[4,3-a]pyrazin-7 (8H)-yl)(4-fluorophenyl-3-d)methanone] | – | 132 nM
